Reference: PubChem BioAssay AID2060907 (Molecular Pharmacology Branch, DTP, NCI, 2025)

Tested on: 388556-164-R-J1-PDC complex spheroid viability
Assay: Anticancer human tumor 388556-164-R-J1-PDC patient-derived colon adenocarcinoma cell line growth inhibition [RAS]
Details: for IC50: curve of first compound; for viability, T/C: stronger effect = lower value
Summary of the method: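 Multi-cell-type spheroids: tumor cells plus HUVEC endothelial cells and mesenchymal stem cells. RAS-pathway inhibitors were combined with targeted agents, each dosed in half-log steps down from clinical Cmax, or from 10 microM when Cmax was unknown.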

[1] = second compound 0.00316 µM, first compound 0.0316 µM
[2] = second compound 0.00316 µM, first compound 0.1 µM
[3] = second compound 0.00316 µM, first compound 0.316 µM
[4] = second compound 0.00316 µM, first compound 1 µM
[5] = second compound 0.01 µM, first compound 0.0316 µM
[6] = second compound 0.01 µM, first compound 0.1 µM
[7] = second compound 0.01 µM, first compound 0.316 µM
[8] = second compound 0.01 µM, first compound 1 µM
[9] = second compound 0.0316 µM, first compound 0.0316 µM
[10] = second compound 0.0316 µM, first compound 0.1 µM
[11] = second compound 0.0316 µM, first compound 0.316 µM
[12] = second compound 0.0316 µM, first compound 1 µM
[13] = second compound 0.1 µM, first compound 0.0316 µM
[14] = second compound 0.1 µM, first compound 0.1 µM
[15] = second compound 0.1 µM, first compound 0.316 µM
[16] = second compound 0.1 µM, first compound 1 µM
[17] = second compound 0.316 µM, first compound 0.0316 µM
[18] = second compound 0.316 µM, first compound 0.1 µM
[19] = second compound 0.316 µM, first compound 0.316 µM
[20] = second compound 0.316 µM, first compound 1 µM
[21] = second compound 1 µM, first compound 0.0316 µM
[22] = second compound 1 µM, first compound 0.1 µM
[23] = second compound 1 µM, first compound 0.316 µM
[24] = second compound 1 µM, first compound 1 µM
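Also: spheroids exposed to compound for 7 days before readout.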
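For viability, T/C in this document: 100% = DMSO vehicle control luminescence.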

## CC(Nc1ccc2c(c1)OCCn1cc(N3C(=O)OCC3C(F)F)nc1-2)C(N)=O (centres undefined) + C=CC(=O)N1CCN(c2nc(OCC3CCCN3C)nc3c(F)c(-c4nc(N)cc(C)c4C(F)(F)F)c(Cl)cc23)C(C)C1
Second compound 0.00316 µM
  IC50: > 10 µM
Second compound 0.01 µM
  IC50: > 10 µM
Second compound 0.0316 µM
  IC50: > 10 µM
Second compound 0.1 µM
  IC50: > 10 µM
Second compound 0.316 µM
  IC50: > 10 µM
Second compound 1 µM
  IC50: > 10 µM
[1]
  viability, T/C: 108%
[2]
  viability, T/C: 96.9%
[3]
  viability, T/C: 88.6%
[4]
  viability, T/C: 84.2%
Second compound 0.00316 µM, first compound 3.16 µM
  viability, T/C: 69.8%
Second compound 0.00316 µM, first compound 10 µM
  viability, T/C: 71.7%
[5]
  viability, T/C: 103%
[6]
  viability, T/C: 94.4%
[7]
  viability, T/C: 85%
[8]
  viability, T/C: 77.1%
Second compound 0.01 µM, first compound 3.16 µM
  viability, T/C: 74%
Second compound 0.01 µM, first compound 10 µM
  viability, T/C: 63.3%
[9]
  viability, T/C: 109%
[10]
  viability, T/C: 98.9%
[11]
  viability, T/C: 92.1%
[12]
  viability, T/C: 76%
Second compound 0.0316 µM, first compound 3.16 µM
  viability, T/C: 81.5%
Second compound 0.0316 µM, first compound 10 µM
  viability, T/C: 65.5%
[13]
  viability, T/C: 110%
[14]
  viability, T/C: 88%
[15]
  viability, T/C: 83%
[16]
  viability, T/C: 77.2%
Second compound 0.1 µM, first compound 3.16 µM
  viability, T/C: 74.8%
Second compound 0.1 µM, first compound 10 µM
  viability, T/C: 68.1%
[17]
  viability, T/C: 105%
[18]
  viability, T/C: 114%
[19]
  viability, T/C: 85.4%
[20]
  viability, T/C: 77.8%
Second compound 0.316 µM, first compound 3.16 µM
  viability, T/C: 69.9%
Second compound 0.316 µM, first compound 10 µM
  viability, T/C: 64.4%
[21]
  viability, T/C: 99.4%
[22]
  viability, T/C: 88.7%
[23]
  viability, T/C: 84.1%
[24]
  viability, T/C: 84.1%
Second compound 1 µM, first compound 3.16 µM
  viability, T/C: 75.3%
Second compound 1 µM, first compound 10 µM
  viability, T/C: 65.7%

## O=C(c1ccc(F)c(F)c1Nc1ccc(I)cc1F)N1CC(O)([C@@H]2CCCCN2)C1 + C=CC(=O)N1CCN(c2nc(OCC3CCCN3C)nc3c(F)c(-c4nc(N)cc(C)c4C(F)(F)F)c(Cl)cc23)C(C)C1
Second compound 0.00316 µM
  IC50: 0.129 µM
Second compound 0.01 µM
  IC50: 0.158 µM
Second compound 0.0316 µM
  IC50: 0.159 µM
Second compound 0.1 µM
  IC50: 0.191 µM
Second compound 0.316 µM
  IC50: 0.15 µM
Second compound 1 µM
  IC50: 0.144 µM
Second compound 0.00316 µM, first compound 0.00316 µM
  viability, T/C: 97.8%
Second compound 0.00316 µM, first compound 0.01 µM
  viability, T/C: 90.8%
[1]
  viability, T/C: 83.7%
[2]
  viability, T/C: 53.5%
[3]
  viability, T/C: 33.5%
[4]
  viability, T/C: 22.8%
Second compound 0.01 µM, first compound 0.00316 µM
  viability, T/C: 106%
Second compound 0.01 µM, first compound 0.01 µM
  viability, T/C: 90.3%
[5]
  viability, T/C: 78.2%
[6]
  viability, T/C: 61.2%
[7]
  viability, T/C: 34.5%
[8]
  viability, T/C: 20.1%
Second compound 0.0316 µM, first compound 0.00316 µM
  viability, T/C: 92%
Second compound 0.0316 µM, first compound 0.01 µM
  viability, T/C: 94.4%
[9]
  viability, T/C: 82.7%
[10]
  viability, T/C: 59.8%
[11]
  viability, T/C: 35%
[12]
  viability, T/C: 18.9%
Second compound 0.1 µM, first compound 0.00316 µM
  viability, T/C: 91.6%
Second compound 0.1 µM, first compound 0.01 µM
  viability, T/C: 96%
[13]
  viability, T/C: 86.5%
[14]
  viability, T/C: 65.4%
[15]
  viability, T/C: 38.1%
[16]
  viability, T/C: 23.3%
Second compound 0.316 µM, first compound 0.00316 µM
  viability, T/C: 95.6%
Second compound 0.316 µM, first compound 0.01 µM
  viability, T/C: 97%
[17]
  viability, T/C: 84.5%
[18]
  viability, T/C: 58.6%
[19]
  viability, T/C: 34%
[20]
  viability, T/C: 21.6%
Second compound 1 µM, first compound 0.00316 µM
  viability, T/C: 97.3%
Second compound 1 µM, first compound 0.01 µM
  viability, T/C: 96.8%
[21]
  viability, T/C: 86.1%
[22]
  viability, T/C: 61.5%
[23]
  viability, T/C: 26.7%
[24]
  viability, T/C: 18.9%
